In article PMC3317662, “Some Commonly Used Brominated Flame Retardants Cause Ca^2+-ATPase Inhibition, Beta-Amyloid Peptide Release and Apoptosis in SH-SY5Y Neuronal Cells” (PLoS ONE, 2012):

The molecules below were run against T1, microsomal Ca2+-ATPase (SERCA) (assay: Ca2+-dependent ATP hydrolysis (phosphate liberation assay) in SH-SY5Y microsomes).
T1 construct: native enzyme in microsomal membranes isolated from SH-SY5Y cells
Assay type: biochemical

Row | Ki [µM] | Compound
1 | 9 ± 2 | CC(C)(c1cc(Br)c(O)c(Br)c1)c1cc(Br)c(O)c(Br)c1 [Tetrabromobisphenol-A]
2 | 3.5 ± 1.2 | BrC1CCC(Br)C(Br)CCC(Br)C(Br)CCC1Br (stereo not drawn) [hexabromocyclododecane]

Row | Compound | Ki [µM]
3 | Brc1c(Br)c(Br)c(Oc2c(Br)c(Br)c(Br)c(Br)c2Br)c(Br)c1Br [decabromodiphenyl ether] | 41 ± 7
